# Assay results reported in US20050112123A1, “Methods of treating proteinuria” (priority 2003, published 2005).
# Key:
# mouse podocytes = experiment: MTT cell proliferation assay, mouse podocytes; assay type: cell-based; details: at higher concentrations of ATRA than required with rat podocytes
# Method: (§1) Experiments were also performed on podocytes derived from C57/bl mice. Glomeruli were sieved and prepared as previously described. […] 61:40-50. Podocytes were grown on collagen 1 coated plates with MGEC-media containing 5% fetal bovine serum (FBS: Summit biotechnology, Ft. Collins, Colo., USA), penicillin (100 U/ml), streptomycin (100 μg/ml), and glutamine (2 mmol/L; all Irvine Scientific, Santa Ana, Calif., USA) at 37° C. in 95% air/5% CO2. Podocytes were identified by previously described criteria (Shankland et al. (1999) supra) and by confirming the presence of podocyte specific proteins—including WT-1, nephrin, podocin, and ezrin—by immunostaining.
# (§2) Exposure ofpodocvtes to ATRA. Rat podocytes, mouse podocytes, and growth permissive HSMP were plated at a concentration of 15,000 cell/cm^2 in standard media and allowed to adhere overnight.
# podocytes = experiment: Hoechst 33342 staining for apoptosis and binucleated cells; assay type: cell-based; details: at the concentrations of ATRA used in these experiments; statistically insignificant
# Method: To ensure that the anti-proliferative effects of ATRA were not confounded by podocyte apoptosis in podocytes or bi-nucleated cells, Hoechst 33342 (Molecular Probes, Eugene, Oreg., USA) staining was performed as previously reported. Hiromura et al. (1999) J Clin Invest 103:597-604. Careful morphological analysis was performed and the percentage of apoptotic cells was quantitated in adherent and non-adherent cells using inverted fluorescent microscopy as previously described. Hiromura et al. (1999) supra; and Mooney et al. (1997) J Immunol 159:3949-3960.
# primary mouse podocytes = experiment: Western blot analysis of nephrin and podocin, primary mouse podocytes; assay type: cell-based; details: primary mouse cultures, FIG. 2
# Method: as §1, §2
# [1] = tested on: C57BL6 mice with anti-glomerular antibody-mediated podocyte injury; experiment: Anti-glomerular antibody model of podocyte injury: renal function (proteinuria, BUN); assay type: in vivo, mouse; details: for BUN increase: anti-glomerular disease; for proteinuria vs control (vehicle): mice with anti-glomerular disease, ATRA 16.6 mg/kg IP daily, P<0.001, FIG. 3
# Method: An antibody-mediated model of podocyte injury was induced in C57BL6 mice with a sheep anti-glomerular antibody (two doses of 0.3 ml/20 gm body weight) over two consecutive days. Kim et al. (1999) Kidney Int 55:2349-2361; and Ophascharoensuk et al. (1998) Kidney Int 54:416-425. After the induction of the anti-glomerular model, but before the development of proteinuria, mice were then divided into an experimental group that received daily injections of ATRA 16.6 mg/kg (IP), and a control group that received vehicle (corn oil). Experimental and control animals were studied on day 7 and 14 (n=5 per group/time point). The podocyte specific proteins WT-1, nephrin, podocin, synaptopodin, were measured by immunostaining at each time point, as was the proliferation marker, PCNA (see above). Using proliferating cell nuclear antigen (PCNA) as a marker of proliferation and WT-1 as a marker for podocytes, the level of podocyte proliferation was determined.
# Renal Function Assessment. Control and experimental mice were placed in metabolic urine collection cages in order to obtain a timed collection for urinalysis. Urine was analyzed for protein content utilizing the sulphosalicylic acid (SSA) method as previously described. Shankland et al. (1996) Kidney Int. 50:116-124. Serum was also collected from mice in order to evaluate blood urea nitrogen (BUN) levels. The BUN kit (Sigma Chemicals, St. Louis, Mo., USA) is based on the direct interaction of urea with diacetyl monomoxime […]. The absorbance obtained from serum samples is compared with a standard curve of increasing concentrations of urea nitrogen standards.
# transgenic podocytes = experiment: Direct visualization (sequential photographs) of plated podocytes; assay type: cell-based, mouse; details: addition of ATRA
# Method: Cellular proliferation was also assessed through direct visualization of 10 cm plated cells at d 1, 2, 4, 6 and 8 growth restriction. Proliferation was assessed by the number of cells seen within a small circle marked on the plate. A total of four circles were marked and observed per plate. The circles were numbered #1-4 and photographed at the above time points. One exemplary circle was chosen per plate and followed through all time points. The four groups were compared at all time points.
# rat podocytes = experiment: MTT cell proliferation assay, rat podocytes
# [2] = tested on: heat sensitive mouse podocytes; experiment: Immunofluorescent staining of cultured HSMP (nephrin, podocin); details: 200 μM ATRA
smiles,measurement,setting,value
"CC1=C(/C=C/C(C)=C/C=C/C(C)=C/C(=O)O)C(C)(C)CCC1 [ATRA, all-trans retinoic acid]",MTT absorbance,mouse podocytes,significantly reduced MTT absorbance
same,cells undergoing apoptosis (Hoechst staining),podocytes,< 4 % of total cells
same,nephrin protein level (Western blot),primary mouse podocytes; 1 μM ATRA,increased the protein levels
same,podocin protein level (Western blot),primary mouse podocytes; 1 μM ATRA,increased the protein levels
same,nephrin protein level (Western blot),primary mouse podocytes; 5 μM ATRA,increased the protein levels
same,podocin protein level (Western blot),primary mouse podocytes; 5 μM ATRA,increased the protein levels
same,BUN increase,[1]; day 7,not altered
same,BUN increase,[1]; day 14,not altered
same,proteinuria vs control (vehicle),[1]; day 7,significantly reduced proteinuria
same,proteinuria vs control (vehicle),[1]; day 14,significantly reduced proteinuria
same,"proliferation of transgenic podocytes (sequential photographs, 10 cm culture dishes)",transgenic podocytes,attenuated
same,rat podocyte proliferation (viable cell number by MTT assay),"rat podocytes; 1 μM, 5 μM, 10 μM, 50 μM, 200 μM ATRA, FIG. 1",reduced rat podocyte proliferation in a concentration-dependent fashion
same,MTT absorbance compared to control cells,"rat podocytes; rat podocytes, beginning at one μM, P<0.001",significantly reduced MTT absorbance
same,podocin immunostaining compared to control,[2]; HSMP,increased immunostaining
same,nephrin immunostaining compared to control cells exposed to vehicle,[2]; heat sensitive mouse podocytes,nephrin immunostaining increased
